{"source": "patent US9034859B2", "about": "“Sulfated oxysterol and oxysterol sulfation by hydroxysterol sulfotransferase promote lipid homeostasis and liver proliferation” (Virginia Commonwealth University, priority 2011, dated 2015)", "key": {"LXR signaling pathway": {"system": "LXR signaling pathway", "test": "Western blot of LXR and its target genes and PCNA in mouse liver (Example 3)", "type": "in vivo, C57BL/6 mice", "conditions": "5 mg/kg i.v.", "method": "Cayman Chemical, Ann Arbor, Mich.); […] […] Metabolism. (Accepted)]. […] Cell lysates were prepared from frozen mouse liver tissues. Total proteins, 100 μg, were separated by 10% SDS-PAGE, and transferred to PVDF membrane (Millipore, Eschbom, Germany). […] Louis, Mo.) was used as a loading control. The immunoreactive bands were detected by Fujifilm Medical System (Fujifilm, Stamford, Conn.) and quantified by Advanced Image Data Analyzer (Aida Inc., Straubenhardt, Germany)."}, "[1]": {"system": "primary rat hepatocytes (PRH)", "test": "Western blot in primary rat hepatocytes (Example 4)", "type": "cell-based", "conditions": "Ad-Control-infected group, T0901317 1.5 μM or 25HC 3 μM", "method": "PRH were prepared as previously described (24). Briefly, parenchymal cells (3.5×10^6) were inoculated in 60-mm plastic Petri dishes coated with rat tail collagen. The plates contained 3 ml of Williams E culture media supplemented with thyroxine (1 μM), dexamethasone (0.1 μM), and penicillin (100 units/ml). Three hours after plating, culture medium was removed and fresh medium was added. Cells were then infected with Ad-SULT2B1b at a multiplicity (MOI) of 10 plaque forming units/cell (pfu/cell) or 100 nM of siRNA-SULT2B1b (ON-TARGET plus siRNA of rat SULT2B1b, Thermo Scientific Dharmacon, Lafayette, Colo.) as previously described (31). The Ad-Control and siRNA-Control (ON-TARGET plus negative control siRNA) were used as controls, respectively. Twenty four hours after infection, cells were treated with T0901317 (1.5 μM) or 25HC (3 μM) for another 24 hours. The cells were harvested at the timepoints as indicated in the text.\nCell lysates were prepared from frozen mouse liver tissues or PRH, and 50 μg of the total proteins were separated by 10% SDS-PAGE, transferred to polyvinylidene difluoride membrane (Millipore, Eschbom, Germany). Specific protein was probed with specific antibodies against PCNA, human SULT2B1b (Santa Cruz Biotechnology, Santa Cruz, Calif.), LXRα (Abcam, Cambridge, Mass.), ATP-binding cassette transporters 1 (ABCA1) (Abcam, Cambridge, Mass.), and SREBP1 (Santa Cruz Biotechnology, Santa Cruz, Calif.). β-Actin (Sigma-Aldrich, St. Louis, Mo.) was used as a loading control. Western analysis was performed by methods known in the art."}}, "data": [{"smiles": "O=S(=O)(c1ccccc1)N(CC(F)(F)F)c1ccc(C(O)(C(F)(F)F)C(F)(F)F)cc1", "note": "[T0901317, reference compound]", "values": [{"measurement": "25HC3S-induced PCNA expression", "setting": "LXR signaling pathway; day 2", "result": "significantly repressed"}, {"measurement": "expressions of LXR target genes ABCA1 and SREBP-1c", "setting": "LXR signaling pathway; day 2, presence and absence of 25HC3S, vs vehicle", "result": "induced"}, {"measurement": "LXR response gene expressions", "setting": "[1]", "result": "significantly increased"}, {"measurement": "PCNA expression", "setting": "[1]", "result": "decreased"}]}]}
